From US20260374766A1, “METHODS FOR TREATING CANCER” (Antares Therapeutics, Inc., priority 2022, published 2026)
Like-named read-outs stand apart in the source and are kept apart here.

Legend:
H1299 p53 Y220C = test: Cell Proliferation Assay (CellTiter-Glo, CTG), H1299 p53 Y220C (NClH1299-inducible p53 Y220C); format: cell-based; details: Homo sapiens, NCI-H1299, 120 h, NClH1299-inducible p53 Y220C cells, 5 days
How it was run: (§1)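 Tet-One inducible p53 Y220C or R273H constructs were stably introduced into NCI-H1299 by lentiviral transduction; NUGC3 was used as is. Cells (250-500 per well) were exposed to compound for 5 days, then CellTiter-Glo was added for 10 min at room temperature and IC50 was calculated from luminescence.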

p53 Y220C = p53 Y220C (Homo sapiens, UniProt P04637, Y220C); test: Luciferase Reporter Assay (Luc), p53 response element, NClH1299 cells with inducible p53 Y220C; format: cell-based; details: 6 hour; for AC50: read-out: Luc P53 Y220C AC50
How it was run: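 Cells were seeded at 5,000 per well and induced with 0.5 ug/mL doxycycline for 24 hours, then exposed to compound for 6 hours. One-Glo reagent was added, plates shaken 5 minutes at room temperature, and luminescence read immediately.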

[1] = target: T1, p53 Y220C mutant protein (amino acid residues 94-293) (Homo sapiens, UniProt P04637, Y220C); test: Surface Plasmon Resonance (SPR) assay, Kd_kinetic; format: binding; details: SPR; p53 Y220C; read-out: SPR P53 Y220C KD kinetic
T1 construct: p53 Y220C mutant protein (amino acid residues 94-293)
How it was run: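 Kinetic dissociation constants derived by 1:1 model fit of SPR data acquired at 16 or 20 °C, pH 7.5 Tris/NaCl running buffer with 1% DMSO.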

NUGC3 p53 Y220C = test: Cell Proliferation Assay (CellTiter-Glo, CTG), NUGC3 p53 Y220C; format: cell-based; details: Homo sapiens, NUGC-3, 120 h, NUGC3 cells, 5 days
How it was run: as §1

H1299 p53 R273H = test: Cell Proliferation Assay (CellTiter-Glo, CTG), H1299 p53 R273H (NClH1299-inducible p53 R273H); format: cell-based; details: Homo sapiens, NCI-H1299, 120 h, NClH1299-inducible p53 R273H cells, 5 days
How it was run: as §1

[2] = luciferase reporter, NClH1299 inducible p53 Y220C

T1 sequence (P04637 94-293, stated change not applied): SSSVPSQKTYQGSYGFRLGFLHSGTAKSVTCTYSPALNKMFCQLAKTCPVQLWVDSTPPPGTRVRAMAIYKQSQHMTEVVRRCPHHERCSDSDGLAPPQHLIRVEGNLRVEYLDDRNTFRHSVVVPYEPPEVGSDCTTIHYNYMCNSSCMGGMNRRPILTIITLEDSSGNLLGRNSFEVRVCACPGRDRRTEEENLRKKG

Row | Compound | IC50 (H1299 p53 Y220C; CellTiter-Glo) | AC50 (p53 Y220C; [2]) | Emax (p53 Y220C; [2]) | Kd [1] | IC50 (NUGC3 p53 Y220C; CellTiter-Glo) | IC50 (H1299 p53 R273H; CellTiter-Glo) | IC50 (H1299 p53 Y220C) | AC50 (p53 Y220C; NClH1299 cells with inducible p53 Y220C) | Emax (p53 Y220C; NClH1299 cells with inducible p53 Y220C, 10 uM tool compound as positive control) | IC50 (NUGC3 p53 Y220C) | IC50 (H1299 p53 R273H)
1 | CN1CC[C@@H](Nc2cccn3c(SC(F)(F)F)c(C#CCNc4ccc(P(C)(C)=O)nn4)cc23)[C@@H](F)C1 [Example 429, 2-(3-{[6-(dimethylphosphoryl)pyridazin-3-yl]amino}prop-1-yn-1-yl)-N-[(3S,4R)-3-fluoro-1-methylpiperidin-4-yl]-3-[(trifluoromethyl)sulfanyl]indolizin-8-amine] | < 750 nM | < 750 nM | 80 to 90% | < 10 nM | < 750 nM | ≥ 10000 nM | – | – | – | – | –
2 | CNC(=O)c1ccc(OC)c(NCC#Cc2nc3c(N[C@@H]4[C@@H]5CC[C@H]4NC5)cccn3c2SC(F)(F)F)c1 [Example 247] | 1500 to 3000 nM | 1500 to 3000 nM | 70 to 80% | < 10 nM | 750 to 1500 nM | 8000 to 10000 nM | – | – | – | – | –
3 | C[C@@H](O)[C@@H](C)NC(=O)c1ccc(NCC#Cc2cc3c(N[C@@H]4CCN(C)C[C@@H]4F)cccn3c2SC(F)(F)F)cc1 [Example 371] | < 750 nM | < 750 nM | > 90% | < 10 nM | < 750 nM | 8000 to 10000 nM | – | – | – | – | –
4 | CN1CC[C@@H](Nc2cccn3c(SC(F)(F)F)c(C#CCNc4ccc(C(=O)NCC(C)(C)O)cc4)cc23)[C@@H](F)C1 [Example 457] | – | – | – | < 10 nM | – | – | < 750 nM | < 750 nM | > 90% | < 750 nM | 8000 to 10000 nM
5 | COc1cc(C(=O)NC[C@@H](C)O)ccc1NCC#Cc1cc2c(N[C@@H]3CCN(C)C[C@@H]3F)cccn2c1SC(F)(F)F [Example 416, 4-{[3-(8-{[(3S,4R)-3-fluoro-1-methylpiperidin-4-yl]amino}-3-[(trifluoromethyl)sulfanyl]indolizin-2-yl)prop-2-yn-1-yl]amino}-N-[(2R)-2-hydroxypropyl]-3-methoxybenzamide] | < 750 nM | < 750 nM | 80 to 90% | < 10 nM | < 750 nM | 5000 to 8000 nM | – | – | – | – | –
6 | CNC(=O)c1cnc(OC)c(NCC#Cc2nc3c(N[C@@H]4CNC[C@@H]4F)cccn3c2SC(F)(F)F)c1 [Example 305] | < 750 nM | < 750 nM | 80 to 90% | < 10 nM | < 750 nM | ≥ 10000 nM | – | – | – | – | –
7 | CNC(=O)c1ccc(NCC#Cc2nc3c(N[C@@H]4CCN(C)C[C@@H]4F)cccn3c2SC(F)(F)F)c(Cl)c1 [Example 310] | < 750 nM | < 750 nM | > 90% | < 10 nM | < 750 nM | ≥ 10000 nM | – | – | – | – | –
8 | CN1CC[C@@H](Nc2cccn3c(SC(F)(F)F)c(C#CCNc4ccc(P(C)(C)=O)cc4)cc23)[C@@H](F)C1 [Example 385] | < 750 nM | < 750 nM | 80 to 90% | < 10 nM | < 750 nM | ≥ 10000 nM | – | – | – | – | –
9 | COc1cc(C(=O)NCC(C)(C)O)ccc1NCC#Cc1cc2c(N[C@@H]3CCNC[C@@H]3F)cccn2c1SC(F)(F)F [Example 408] | < 750 nM | < 750 nM | 80 to 90% | < 10 nM | < 750 nM | 5000 to 8000 nM | – | – | – | – | –
10 | CN1CC[C@@H](Nc2cccn3c(SC(F)(F)F)c(C#CCNc4ccc(P(C)(C)=O)cc4)nc23)[C@@H](F)C1 [Example 315] | < 750 nM | 750 to 1500 nM | 80 to 90% | < 10 nM | < 750 nM | ≥ 10000 nM | – | – | – | – | –
11 | CCc1ncc(C(=O)NC)cc1NCC#Cc1nc2c(N[C@@H]3CCN(C)C[C@@H]3F)cccn2c1SC(F)(F)F [Example 273] | < 750 nM | < 750 nM | > 90% | < 10 nM | < 750 nM | ≥ 10000 nM | – | – | – | – | –
